Three compounds from publication PMC8304783, “Antiadhesive Properties of Imidazolium Ionic Liquids Based on (−)-Menthol Against Candida spp” (International Journal of Molecular Sciences, 2021) can be followed below.

What all share (assay type): cell-based
For experiment [1], the system named is C. albicans. Briefly: Detachment of adherent cells from polystyrene (crystal violet). The note with it: C. albicans on polystyrene, 2 h treatment; over MIC, 2 × MIC and 4 × MIC. As to the method:
(§1) Thus, for the evaluation of ILs on fungal adhesion, higher concentrations were used, corresponding to 1, 2 and 4 times the MIC90 values (Figure 1).
(§2) Figure 1 Detachment of adherent Candida spp. cells after 2 h incubation on polystyrene surfaces by ionic liquids (ILs) (A) or amphotericin B (AMB) (B) (means ± SD; n = 3). Results are presented as percentage of adherent cells relative to untreated controls (100% adhesion). Statistical analysis of detachment at each concentration was performed towards corresponding control experiments (fungi untreated by ILs or AMB = 100% adhesion) (*, p < 0.05 and **, p < 0.01).
(§3) Post-adherence treatment with ILs was performed in a similar manner to that described previously by our team. Candida spp. suspensions were prepared by centrifuging YPD-grown cultures and resuspending fungal mass in PBS to an OD600 = 0.6. Sterile 96-well plates were inoculated with the prepared suspensions and incubated for 2 h at 37 °C to induce fungal adhesion. Afterwards, adherent cells were washed with PBS to remove planktonic cells and treated with ILs (concentrations equivalent to 1, 2 or 4 × MIC90 for each fungi) for 2 h at 37 °C. Then, each well was washed with PBS and adherent cells were fixed with 0.1% CV solution for 5 min, and washed with PBS. Cells were then treated with a solution of isopropanol 0.04 N HCL with 0.1% SDS to permeabilize adherent cells and release the CV dye. The absorbance of CV was measured at 590 nm (ASYS UVM 340 Biogenet). The percentage of cells that were removed was determined in comparison to adherent cells treated with PBS only (designated 100% adhesion).

The next experiment deals with C. glabrata. The experiment is described as above. The conditions noted are these: C. glabrata on polystyrene, 2 h treatment. As to the method: as §1, §2, §3
The next experiment relates to C. krusei. Described as above. The note with it: C. krusei on polystyrene, 2 h treatment; over MIC, 2 × MIC and 4 × MIC. As to the method:
as §1, §2, §3

Another experiment has as its system C. parapsilosis. The description is as above. The conditions noted are these: C. parapsilosis on polystyrene, 2 h treatment, 2 × MIC and 4 × MIC. How it is done: as §1, §2, §3
The subject of experiment [2] is C. albicans. Briefly: Yeast-to-hyphae transition (FBS-induced hyphae formation). The conditions noted are these: FBS-induced (10%), ILs 25 µM, 2 h, 37 °C; control 94 ± 0.6%. As to the method:
Fungal adhesion to biomedical surfaces is strongly related to the structure of the cell wall, and the presence of adhesins (Als proteins) on the surface of the cell. In turn, the progression to biofilm formation is dependent on the ability of C. albicans to form hyphae. In conditions similar to those above (ILs conc. = 25 µM), we examined C. albicans cell wall integrity, its ability to form hyphae, and the level of ALS genes expression, encoding Als1 and Als5 adhesins (Figure 3). […] Despite some reduction, the result was not statistically significant (p = 0.12). On the other hand, after the treatment with IL 2a, the expression of ALS1 and ALS5 genes was reduced by 50 or 55%, respectively (Figure 3C). The results were statistically significant in both cases (p = 0.04 for either ALS gene). However, in case of compounds with alkyl substituents (1a and 1b), the reduction of gene expression was to a lesser degree. […] Despite observing a chain-length dependence, the results were not statistically significant (p = 0.07 for both ALS gene after treatment with 1b).
Experiments were performed as described before, with modifications. YPD-grown C. albicans were pelleted, washed with fresh YPD medium and resuspended in YPD medium (OD600 = 0.4). The suspensions were treated with ILs (conc. = 25 µM) and FBS (final conc. = 10%) for 2 h at 37 °C. The samples were observed under the Zeiss Axio Imager A2 microscope equipped with Canon PowerShot G10 camera for assessment of cell morphology. For quantitative estimation, cells of each assay were counted in three independent repetitions determining the percentage of hyphae forming cells.

For experiment [3], the system named is C. albicans strain SC5314. Put plainly: Biofilm formation on dentures (crystal violet). The note with it: for C. albicans biofilm on PFM dental crowns (CV staining) / C. albicans biofilm on acrylic dental crowns (CV staining) / C. albicans biofilm on dental alloy substructures (CV staining): 72 h biofilm, then ILs 25 µM for 2 h; for Visual eradication of C. albicans biofilm formed on dentures: dentures of different materials taken together, ILs 25 µM, 2 h. From the text:
We evaluated the ability of ILs to eradicate C. albicans biofilm formation on a number of dentures, namely acrylic dental crowns, PFM dental crowns and dental alloy substructures (Figure 2). This approach has the following disadvantage: impossibility of reliable biofilm quantification. However, during in vivo Candida spp. infections and biofilm formation, the fungi attach themselves into porous structure of dentures, and thus we selected them for the studies over commonly used discs. Here, an IL concentration of 25 µM was selected for this investigation. In each condition, a C. albicans biofilm was formed after 72 h incubation, and the collected biomass was microscopically evaluated for the presence of hyphae, pseudohyphae and blastoconidia characteristic of C. albicans (Figure 2). Next, the materials were treated with ILs for 2 h and stained with crystal violet (CV). […] Microscopic observations of the stained biomass from dentures exposed to both 1a and 1b (Figure 2, white arrows) confirmed the presence of C. albicans hyphae and blastoconidia (data not shown).
To assess the influence of ILs on biofilm formation by C. albicans strain SC5314 on dentures, the following materials were used: acrylic dental crowns, porcelain-fused-to-metal (PFMs) dental crowns and dental alloy substructures. All dentures were kind gifts from Prof. M. Łukaszewicz (Wrocław, Poland). Prior to the experiments, the dentures were sterilized by 1 h incubation in 70% pure ethanol (EtOH) solution, washed with sterile water to remove EtOH residues and dried under aseptic conditions. The experiments were performed by aseptically placing dentures in YPD, supplemented with FBS, and inoculating them with YPD-grown C. albicans suspension (0.01% Vol/Vol). After 72 h of incubation at 37 °C, the dentures were treated for 2 h with the addition of ILs (conc. = 25 µM), washed with PBS and fixed with 0.1% CV solution for 10 min, then washed with PBS to remove the stain residue. The dentures were then dried and photographed. Microscopic preparations were made of biofilm samples which were imaged using the Zeiss Axio Imager A2 microscope equipped with Zeiss Axiocam 503 mono microscope camera.

The mark [4] stands for this setting: highest concentration (4 × MIC).

In the case of `CCCCCCCCCn1cc[n+](CO[C@@H]2C[C@H](C)CC[C@H]2C(C)C)c1` [1a, 1-[(1R,2S,5R)-(−)-menthoxymethyl]-3-nonylimidazolium chloride], in the experiment with C. albicans [1], the Reduction of adhesion result is “did not influence the adherent properties”. The Reduction of adhesion with C. glabrata (setting [4]) is recorded as ~ 40%. Further, the Reduction of adhesion entry with C. krusei is on record as “approximately 10%”. Also, the Reduction of adhesion entry with C. parapsilosis (over MIC) was “did not influence the adherent properties”. Further, the “Percentage of cells forming hyphae” value in the experiment with C. albicans [2] was under 1%. Moreover, in experiment [3], the “C. albicans biofilm on PFM dental crowns (CV staining)” value is listed as “residual CV staining was observed”, the “C. albicans biofilm on acrylic dental crowns (CV staining)” value is “residual CV staining was observed”, the “C. albicans biofilm on dental alloy substructures (CV staining)” value was “residual CV staining was observed” and the “Visual eradication of C. albicans biofilm formed on dentures” value (shortened to “Visual eradication”) is recorded as “partially”.

On to `CCCCCCCCCOCn1cc[n+](CO[C@@H]2C[C@H](C)CC[C@H]2C(C)C)c1` [2a, 1-(1R,2S,5R)-(−)-menthoxymethyl-3-nonyloxymethylimidazolium chloride], for which the Reduction of adhesion is on record as 20–30% with C. albicans [1], “approximately 45%” in the experiment on C. glabrata (setting [4]), 10–20% with C. krusei and 30–40% in the experiment on C. parapsilosis (over MIC). For the same compound, in the experiment on C. albicans [2], the “Percentage of cells forming hyphae” value is on record as 78.2 ± 17.2%. Also, the “C. albicans biofilm on PFM dental crowns (CV staining)” value in experiment [3] is “did not fully protect”. Besides, the “C. albicans biofilm on acrylic dental crowns (CV staining)” value in experiment [3] is given as “protected”. Also, the “C. albicans biofilm on dental alloy substructures (CV staining)” value in experiment [3] is recorded as “protected”. Further, the “Visual eradication” value in experiment [3] is “totally”.

Take `CCCCCCCCCCn1cc[n+](CO[C@@H]2C[C@H](C)CC[C@H]2C(C)C)c1` [1b, 3-decyl-1-[(1R,2S,5R)-(−)-menthoxymethyl]imidazolium chloride]: the Reduction of adhesion in the experiment with C. albicans [1] is on record as 20–25%; in the experiment with C. glabrata (2 × MIC and 4 × MIC) it was ~ 20%; in the experiment on C. krusei, “did not significantly reduce”; in the experiment on C. parapsilosis, 20–25%. Further, the “Percentage of cells forming hyphae” value in the experiment on C. albicans [2] is on record as under 1%. In addition, in experiment [3], the “C. albicans biofilm on PFM dental crowns (CV staining)” value was “residual CV staining was observed”. The “C. albicans biofilm on acrylic dental crowns (CV staining)” value in experiment [3] is recorded as “residual CV staining was observed”. Further, the “C. albicans biofilm on dental alloy substructures (CV staining)” value in experiment [3] is reported as “residual CV staining was observed”. Besides, the “Visual eradication” value in experiment [3] was “partially”.
